Reference: patent US10537521B2 (priority 2016, dated 2020)
Where “and” joins values, the source holds several entries; their conditions need not be identical. Identical values can stand only once. Counter-ions that a name gives are not always drawn. Like-named read-outs stand apart in the source and are kept apart here.

Columns and labels:
[1] = Example 1: multiple-dose randomized 3-way crossover PK study of two IV tramadol regimens vs 100 mg oral q6h; details: human, plasma; for concentration at 1 h: C1 h
Experimental: A fitted curve was obtained because the second oral peak was not measured in the study. For the modeling portion of the analysis, a validated Phoenix® WinNonlin® program version 6.4 (Certara) was used for PK analysis, simulation, graphics, tables and statistical calculations. […] For purposes of nonlinear regression, the data were weighted as 1/observed. Predicted concentration-time data were calculated based on the individual fitted PK parameters.

[2] = loading doses up to 150 mg IV, postoperative; cited from earlier work
[3] = Example 4: multiple dose steady-state dose proportionality study, tramadol injection 50/100 mg IV and Ultram tablet 50/100 mg oral q6h; format: in vivo, human; details: for Cmax, tramadol, Mean ± SD / Cmin, tramadol, Mean ± SD / Tmax, tramadol, Mean ± SD: steady-state, healthy volunteers
Experimental: The study was an open-label, single-period, randomized, parallel treatment design. Subjects received study drug every 6 hours beginning on the morning of Day 1 and ending on the morning of Day 3. The first dose on Day 1 and the last dose on Day 3 were administered after a minimum 10 hour fast.

[4] = cited from earlier work; for CL/F (total clearance): humans n=10 male
mice and rats = details: cited from earlier work
[5] = iv, 50 mg, plasma concentration, Mean, 50 mg IV Dose (h 0, 2, 4, then q4h to h 44), Time […]
[6] = Tramadol dosed as 50 mg IV every 6 hours
[7] = Tramadol dosed as 100 mg IV every 6 hours
[8] = Tramadol dosed as Oral (Ultram tablet) every 6 hours

SMILES: COc1cccc([C@]2(O)CCCC[C@H]2CN(C)C)c1 (racemic) [Tramadol, (±)cis-2-[(dimethylamino)methyl]-1-(3-methoxyphenyl) cyclohexanol hydrochloride]
- concentration at 45 h ([1]; iv, 50 mg, plasma concentration, Mean, 50 mg IV Dose (h 0, 2, 4, then q4h to h 44), Time 45.0 hr): 610 ng/mL
- concentration at 45.5 h ([1]; iv, 50 mg, plasma concentration, Mean, 50 mg IV Dose (h 0, 2, 4, then q4h to h 44), Time 45.5 hr): 553 ng/mL
- concentration at 46 h ([1]; iv, 50 mg, plasma concentration, Mean, 50 mg IV Dose (h 0, 2, 4, then q4h to h 44), Time 46.0 hr): 528 ng/mL
- concentration at 47 h ([1]; iv, 50 mg, plasma concentration, Mean, 50 mg IV Dose (h 0, 2, 4, then q4h to h 44), Time 47.0 hr): 490 ng/mL
- concentration at 16 h [1, 5]: 388 ng/mL
- concentration at 24 h [1, 5]: 413 ng/mL
- concentration at 48 h [1, 5]: 434 ng/mL
- AUC(0-t) ([1]; iv, 75 mg, AUC0-24, 75 mg IV regimen (h 0, 3, 6, then q6h to h 42), mean): 9930 ng·h/mL
- AUC(0-t) ([1]; iv, 75 mg, AUC0-48, 75 mg IV regimen (h 0, 3, 6, then q6h to h 42), mean): 19300 ng·h/mL
- AUC ([1]; iv, 75 mg, AUC24-48, 75 mg IV regimen (h 0, 3, 6, then q6h to h 42), mean): 9930 ng·h/mL
- AUC ([1]; iv, 75 mg, AUCtau 1, 75 mg IV regimen (h 0, 3, 6, then q6h to h 42), first dosing interval, mean): 1250 ng·h/mL
- AUC ([1]; iv, 75 mg, AUCtau n, 75 mg IV regimen (h 0, 3, 6, then q6h to h 42), last dosing interval, mean): 3040 ng·h/mL
- concentration at 3 h ([1]; iv, 75 mg, C3, 75 mg IV regimen (h 0, 3, 6, then q6h to h 42), mean): 237 ng/mL
- concentration at 48 h ([1]; iv, 75 mg, C48 (T48), 75 mg IV regimen (h 0, 3, 6, then q6h to h 42), mean): 354 ng/mL
- concentration at 1 h ([1]; iv, 75 mg, 75 mg IV regimen (h 0, 3, 6, then q6h to h 42), mean): 361 ng/mL
- Cmax ([1]; iv, 75 mg, Cmax(0-3), 75 mg IV regimen (h 0, 3, 6, then q6h to h 42), first dose, mean): 484 ng/mL
- Cmax ([1]; iv, 75 mg, Cmax(3-6), 75 mg IV regimen (h 0, 3, 6, then q6h to h 42), mean): 756 ng/mL
- Cmax ([1]; iv, 75 mg, Cmax(42-48), 75 mg IV regimen (h 0, 3, 6, then q6h to h 42), steady-state, mean): 827 ng/mL
- Cmax ([1]; iv, 75 mg, Cmax, 75 mg IV regimen (h 0, 3, 6, then q6h to h 42), mean): 932 ng/mL
- Tmax ([1]; iv, 75 mg, Tmax(0-3), 75 mg IV regimen (h 0, 3, 6, then q6h to h 42), mean): 0.5 h
- Tmax ([1]; iv, 75 mg, Tmax(3-6), 75 mg IV regimen (h 0, 3, 6, then q6h to h 42), mean): 3.31 h
- Tmax ([1]; iv, 75 mg, Tmax(42-48), 75 mg IV regimen (h 0, 3, 6, then q6h to h 42), mean): 42.4 h
- Tmax ([1]; iv, 75 mg, Tmax, 75 mg IV regimen (h 0, 3, 6, then q6h to h 42), mean): 15.9 h
- AUC(0-t) ([1]; po, 100 mg, AUC0-24, 100 mg oral q6h to h 42, mean): 7490 ng·h/mL
- AUC(0-t) ([1]; po, 100 mg, AUC0-48, 100 mg oral q6h to h 42, mean): 19100 ng·h/mL
- AUC ([1]; po, 100 mg, AUC24-48, 100 mg oral q6h to h 42, mean): 11600 ng·h/mL
- AUC ([1]; po, 100 mg, AUCtau 1, 100 mg oral q6h to h 42, first dosing interval, mean): 1490 ng·h/mL
- AUC ([1]; po, 100 mg, AUCtau n, 100 mg oral q6h to h 42, last dosing interval, mean): 3480 ng·h/mL
- concentration at 6 h ([1]; po, 100 mg, C6, 100 mg oral q6h to h 42, mean): 197 ng/mL
- concentration at 48 h ([1]; po, 100 mg, C48 (T48), 100 mg oral q6h to h 42, mean): 497 ng/mL
- concentration at 1 h ([1]; po, 100 mg, 100 mg oral q6h to h 42, mean): 278 ng/mL
- Cmax ([1]; po, 100 mg, Cmax(0-6), 100 mg oral q6h to h 42, first dose, mean): 377 ng/mL
- Cmax ([1]; po, 100 mg, Cmax(42-48), 100 mg oral q6h to h 42, steady-state, mean): 701 ng/mL
- Cmax ([1]; po, 100 mg, Cmax, 100 mg oral q6h to h 42, mean): 701 ng/mL
- Tmax ([1]; po, 100 mg, Tmax(0-6), 100 mg oral q6h to h 42, mean): 1.54 h
- Tmax ([1]; po, 100 mg, Tmax(42-48), 100 mg oral q6h to h 42, mean): 44 h
- Tmax ([1]; po, 100 mg, Tmax, 100 mg oral q6h to h 42, mean): 44 h
- serious adverse effects [2]: not associated with any serious adverse effects
- Cmax, tramadol, Mean ± SD [3, 6]: 541 ± 126 ng/mL
- Cmin, tramadol, Mean ± SD [3, 6]: 203 ± 50 ng/mL
- Tmax, tramadol, Mean ± SD [3, 6]: 0.375 ± 0.189 h
- Cmin, tramadol, Mean ± SD ([3]; Tramadol dosed as 50 mg Oral (Ultram tablet) every 6 hours): 213 ± 93 ng/mL
- Cmax, tramadol, Mean ± SD [3, 7]: 1250 ± 236 ng/mL
- Cmin, tramadol, Mean ± SD [3, 7]: 539 ± 172 ng/mL
- Tmax, tramadol, Mean ± SD [3, 7]: 0.406 ± 0.442 h
- Cmax, tramadol, Mean ± SD [3, 8]: 703 ± 210 ng/mL
- Cmin, tramadol, Mean ± SD [3, 8]: 405 ± 151 ng/mL
- AUC ([3]; human, plasma, iv, 50 mg): 1970 ± 453 ng·h/mL
- AUC(0-inf) ([3]; human, plasma, iv, 50 mg): 4040 ± 1060 ng·h/mL
- AUC(0-t) ([3]; human, plasma, iv, 50 mg): 4010 ± 1050 ng·h/mL
- AUC ([3]; human, plasma, iv, 100 mg): 4730 ± 1240 ng·h/mL
- AUC(0-inf) ([3]; human, plasma, iv, 100 mg): 11400 ± 4540 ng·h/mL
- AUC(0-t) ([3]; human, plasma, iv, 100 mg): 11200 ± 4270 ng·h/mL
- AUC(0-inf) ([3]; human, plasma, po, 50 mg): 4450 ± 2110 ng·h/mL
- AUC(0-t) ([3]; human, plasma, po, 50 mg): 4360 ± 2030 ng·h/mL
- Cmax ([3]; human, plasma, po, 50 mg): ~368 ng/mL
- AUC(0-t) ([3]; human, plasma, po, 100 mg): 8660 ± 4260 ng·h/mL
- absolute bioavailability of the oral dose ([4]; 100 mg PO vs IV, based on AUC values, hydrochloride): 68±13% and 68%
- first pass metabolism ([4]; 100 mg PO, estimated): ~20%
- estimated absorption of the oral dose ([4]; 100 mg PO): 86-88%
- CL/F (total clearance) ([4]; 100 mg i.v., hydrochloride): 467 ± 124 mL/min
- CL/F (total clearance) ([4]; 100 mg i.v., listed as tramadol, hydrochloride): 710 ± 174 mL/min
- time to peak serum concentration (tmax) ([4]; 100 mg oral dosing): approximately 2 hours
- CL/F (total clearance) ([4]; 100 mg p.o., hydrochloride): 710 ± 174 mL/min
- CL/F (total clearance) ([4]; 100 mg p.o., listed as tramadol, hydrochloride): 467 ± 124 mL/min
- carcinogenic potential (mice and rats): no evidence of carcinogenic potential
